Source: PMC7463632, “Conformational Restriction of Histamine with a Rigid Bicyclo[3.1.0]hexane Scaffold Provided Selective H3 Receptor Ligands” (Molecules, 2020)
Several values for one entry are separate records, joined by “and”; a condition that tells them apart may be missing. Equal entries are not always repeated. Where two headings read alike, the source gives them in different places.

Experiments:
[1] = biological target: T1, human histamine H4 receptor (Homo sapiens, UniProt Q9H3N8); design: method as in PMID 16942032; conditions: human H4R, [3H]histamine; mean ± SEM; cited from earlier work
T1 construct: purchased Euroscreen (Brussels, Belgium); host or cells: CHO cells (membrane preparations)

[2] = biological target: T2, human histamine H3 receptor (Homo sapiens, UniProt Q9Y5N1); conditions: cited from earlier work; for Ki: human H3R, [3H]Nα-methylhistamine, mean ± SEM; for Selectivity Ratio (H4/H3): ratio of Ki H4 / Ki H3, human receptors
T2 construct: purchased Euroscreen (Brussels, Belgium); host or cells: CHO cells (membrane preparations)

[3] = biological target: T2, human histamine H3 receptor; experiment: Radioligand binding assay with [3H]Nα-methylhistamine on CHO cell membranes expressing recombinant human H3 receptor; conditions: for Ki: human H3R, CHO cell membranes, [3H]Nα-methylhistamine, mean ± SEM (n = 3–5); for Selectivity Ratio (H4/H3): ratio of Ki H4 / Ki H3, human receptors
Procedure: (§1) The binding affinities of 6, 7, ent-6, and ent-7 for the human H3R subtype with [^3H]N^α-methylhistamine and the human H4R subtype with [^3H]histamine were evaluated using cell membranes expressing human H3R or H4R according to the previously reported method, and the results are summarized in Table 1.
(§2) The protocol of the biological assay was according to the previous report. The membrane preparations of Chinese hamster ovary (CHO) cells, which expressed recombinant human histamine H3 or H4 receptors, were purchased from Euroscreen (Brussels, Belgium). The binding assay of the H3 and H4 receptors was performed using [^3H]N^α-methylhistamine (Perkin-Elmer, Boston, MA) and [^3H]histamine (Perkin-Elmer), respectively. Briefly, the membrane preparations (7.5–15 µg protein) were incubated with different concentrations of [^3H]N^α-methylhistamine (0.1–3 nM) and of [^3H]histamine(1–30 nM) for 30 min at 25 °C in 50 mM Tris/5 mM MgCl2 buffer (pH 7.4). The reaction was terminated by rapid filtration (Cell Harvester, Brandel Co., Gaithersburg, MD) through Whatman GF/B glass fiber filters presoaked for 2 h in 0.5% polyethyleneimine, and the filters were rinsed three times with an ice-cold buffer (2 mL). Membrane-bound radioactivity was extracted from filters overnight in scintillation fluid (toluene, 2 L; Triton X-100, 1 L; 2,5-diphenyloxazole, 15 g; 1,4-bis[2-(5-phenyloxazolyl)]benzene, 0.3 g) and determined in a liquid scintillation counter. […] The apparent dissociation constants (Kd) for each radioligand was determined by nonlinear regression analysis of the curve generated by plotting specific binding concentration versus concentration of the radioligand with GraphPad Prism (GraphPad Software, San Diego, CA) using a one-site binding curve equation. […] The inhibition constant, Ki, was calculated from the equation, Ki = IC50/(1 + L/Kd), where L equals the concentration of each radioligand. The data were presented as mean ± SE (n = 3–5).

[4] = biological target: T1, human histamine H4 receptor; experiment: Radioligand binding assay with [3H]histamine on CHO cell membranes expressing recombinant human H4 receptor; conditions: human H4R, mean ± SEM (n = 3–5)
Procedure: as §1, §2

T2 sequence (Q9Y5N1 whole entry): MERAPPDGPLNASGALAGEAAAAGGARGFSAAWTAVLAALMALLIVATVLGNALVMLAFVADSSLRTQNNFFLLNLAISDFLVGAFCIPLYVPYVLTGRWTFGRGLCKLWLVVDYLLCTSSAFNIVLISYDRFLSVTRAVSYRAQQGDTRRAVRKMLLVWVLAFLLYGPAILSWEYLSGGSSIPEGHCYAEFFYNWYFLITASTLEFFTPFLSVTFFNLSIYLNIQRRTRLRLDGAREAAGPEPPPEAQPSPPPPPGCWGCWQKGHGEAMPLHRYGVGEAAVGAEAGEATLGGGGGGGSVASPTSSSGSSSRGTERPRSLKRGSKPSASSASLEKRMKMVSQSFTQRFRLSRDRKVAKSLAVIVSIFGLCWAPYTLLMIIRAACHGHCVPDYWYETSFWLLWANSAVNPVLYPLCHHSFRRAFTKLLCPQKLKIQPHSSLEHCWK

| Ki [3] | Selectivity Ratio (H4/H3) [3] | Ki [4] | fold lower H3R binding affinity than that of 3 ([3]; H3R Ki of 5 compared with 3) | SMILES | Ki [1] | Ki [2] | Selectivity Ratio (H4/H3) [2] |
| --- | --- | --- | --- | --- | --- | --- | --- |
|  |  |  |  | Clc1ccc(CNCC[C@@H]2C[C@@H]2c2cnc[nH]2)cc1 (single isomer, unassigned) [ent-3] | 7.6 ± 0.4 nM | 8.4 ± 1.5 nM | 0.9 |
| 21.9 ± 6 nM | 19 | 416 ± 155 nM |  | Clc1ccc(CNC[C@@H]2CC[C@@]3(c4c[nH]cn4)C[C@@H]23)cc1 (single isomer, unassigned) [ent-6] |  |  |  |
| 14.8 ± 3.8 nM | 4.7 | 69.2 ± 21 nM |  | Clc1ccc(CNC[C@H]2CC[C@@]3(c4c[nH]cn4)C[C@@H]23)cc1 (single isomer, unassigned) [ent-7] |  |  |  |
|  |  |  |  | Clc1ccc(CNCCC2CC2c2c[nH]cn2)cc1 (stereo not shown) [Compound 3] | 37.2 ± 2.7 nM | 3.6 ± 0.4 nM | 10.3 and 10 |
|  | 1.3 | 9 ± 1 nM |  | CC[C@@H](CNCc1ccc(Cl)cc1)[C@H]1C[C@@H]1c1c[nH]cn1 [Compound 4] |  |  |  |
|  | 1.2 | 76.5 ± 14 nM | more than 15 fold | CC[C@H](CNCc1ccc(Cl)cc1)[C@H]1C[C@@H]1c1c[nH]cn1 [Compound 5] |  |  |  |
| 31.6 ± 8.2 nM | 16 | 501 ± 201 nM |  | Cl.Cl.Clc1ccc(CNC[C@H]2CC[C@]3(c4c[nH]cn4)C[C@H]23)cc1 [Compound 6, (1S,4S,5R)-4-[N-(4-Chlorobenzyl)aminomethyl]-1-(1H-imidazol-4-yl)bicyclo[3.1.0]hexane dihydrochloride] |  |  |  |
| 5.6 ± 1.6 nM |  | 602 ± 343 nM |  | Clc1ccc(CNC[C@@H]2CC[C@]3(c4c[nH]cn4)C[C@H]23)cc1 [Compound 7] |  |  |  |
